Data reported in patent US20260234115A1, “LIPID COMPOUNDS, COMPOSITIONS, AND USES THEREOF” (Liberate Bio, Inc., priority 2023, published 2026).
Marks after values point to notes of the source that are not given here.

Key:
[1] = Plate-based fluorescence (RiboGreen) assay: nucleic acid cargo content and encapsulation efficiency of LNPs; format: physicochemical; details: for EE (%) N/P:6: LNP
Description: (§1) Lipids and active ingredients (e.g., RNA, DNA, etc.) were assembled into LNPs using microfluidic mixing. An ethanol phase was prepared by solubilizing ionizable lipids (i.e., lipid compounds), phospholipids (e.g., DSPC), cholesterol, and PEG lipids in ethanol, at predetermined mol % ratios given in Table 2. An aqueous phase was prepared by diluting a nucleic acid cargo (e.g., firefly luciferase mRNA) in an acidified buffer (pH 4.0 citrate buffer, 50 mM). A chip with microfluidic mixing architecture (e.g., toroidal mixer) was used to mix the two phases at predetermined flow rate ratios (e.g., 9 ml/min for the aqueous phase and 3 ml/min for the ethanol phase). Resulting LNPs comprising the lipids and encapsulating the nucleic acid cargo were dialyzed against PBS pH 7.4 for 2 hours at room temperature in a 20 kDa MWCO dialysis membrane. Then, PBS was refreshed to continue dialysis overnight at 2-8 TC. Upon completion of the buffer exchange, LNPs were optionally concentrated using a ultracentrifugal unit with a 10-100 kDa MWCO membrane.
c. Plate-Based Fluorescence (RiboGreen) Assay
Nucleic acid cargos in the LNPs were quantified by RiboGreen assay, against a nucleic acid standard curve. LNPs encapsulating nucleic acid cargo were mixed with 1× Tris-EDTA (TE) and 2% triton in TE, separately, to achieve dilutions required by the assay. Then, the samples were heated at 30° C. and vortexed at 300 rpm. Samples were plated into 96-well plates and RiboGreen reagent was added into each well. Following incubation in the dark, fluorescence was measured from the wells, and plotted against the standard curve. Nucleic acid concentration obtained from the Triton-treated samples were used for total cargo concentration quantification. Only TE diluted sample fluorescence values were used to determine the non-encapsulated (free) cargo, and their ratio was used to determine the encapsulation efficiency (EE %).

[2] = Dynamic light scattering: LNP particle size and PDI; format: physicochemical; details: for PDI N/P:6 / Size (nm) N/P:6: LNP
Description: as §1
d. Dynamic Light Scattering
LNPs were diluted with PBS pH 7.4 to predetermined dilution ranges based on the process step and LNP concentration. Following mixing, the particle size and PDI were measured by a dynamic light scattering instrument.

[3] = system: mouse organs; assay: In vivo activity screening in mice: organ mean total flux (p/s) of luciferase activity after injection of F2 LNP pools (Table 6, FIG. 7A-7C); details: Mouse 5, dose 0.5 mg/kg, luciferase mRNA
In short: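 Luciferase output per organ is reported as mean total flux (p/s) from IVIS regions of interest. Organs were collected from perfused C57BL/6J mice and imaged 10-15 min after s.c. D-luciferin, 4-6 h after i.v. dosing. Dosing was 0.25-3 mg/kg luciferase mRNA in F2 LNP pools.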

[4] = LNP compositions for in vivo mouse study, four formulations (F1-F4) pooled, or pools of four compounds
[5] = LNP compositions for in vivo mouse study, four formulations (F1-F4) of the lipid compound pooled, or pools of four compounds (sixteen compositions)
[6] = LNP compositions for Formulation F2 Study

| EE % [1, 4] [%] | mRNA Content [1, 4] [µg/mL] | EE (%) N/P:6 ([1]; Formulation F1, N/P 6) [%] | EE (%) N/P:6 ([1]; Formulation F2, N/P 6) [%] | EE (%) N/P:6 ([1]; Formulation F3, N/P 6) [%] | EE (%) N/P:6 ([1]; Formulation F4, N/P 6) [%] | Particle Size (nm) [2, 5] [nm] | PDI [2, 4] | PDI N/P:6 ([2]; Formulation F1, N/P 6) | Size (nm) N/P:6 ([2]; Formulation F1, N/P 6) [nm] | PDI N/P:6 ([2]; Formulation F2, N/P 6) | Size (nm) N/P:6 ([2]; Formulation F2, N/P 6) [nm] | PDI N/P:6 ([2]; Formulation F3, N/P 6) | Size (nm) N/P:6 ([2]; Formulation F3, N/P 6) [nm] | PDI N/P:6 ([2]; Formulation F4, N/P 6) | Size (nm) N/P:6 ([2]; Formulation F4, N/P 6) [nm] | Structure (SMILES) | other results |
| --- | --- | --- | --- | --- | --- | --- | --- | --- | --- | --- | --- | --- | --- | --- | --- | --- | --- |
| 97 | 100 | 99 | 99 | 99 | 99 | 81.1 | 0.066 | 0.04 | 67 ± 1 | 0.02 | 78 ± 1 | 0.03 | 96 ± 2 | 0.05 | 65 ± 2 | CCCCCCC(CCC(=O)OCC(COC(=O)CCCCCCOC(=O)C(CCCC)CCCCCC)(COC(=O)CCCCCCOC(=O)C(CCCC)CCCCCC)COC(=O)CCCCCCOC(=O)C(CCCC)CCCCCC)OC(=O)NCCN1CCCC1 (centres unmarked) [Compound 18, [7-[2,2-bis[7-(2-butyloctanoyloxy)heptanoyloxymethyl]-3-[4-(2-pyrrolidin-1-ylethylcarbamoyloxy)decanoyloxy]propoxy]-7-oxo-heptyl]2-butyloctanoate] | EE % [1, 6]: 98%; PDI [2, 6]: 0.059; Particle Size (nm) [2, 6]: 92.2 nm |
| 96 | 80 | 98 | 96 | 98 | 99 | 84.4 | 0.12 | 0.12 | 70 ± 0 | 0.08 | 88 ± 3 | 0.06 | 97 ± 3 | 0.16 | 66 ± 3 | CCCCC/C=C\C/C=C\CCCCCCCC(=O)OCC(COC(=O)CCCCCCC/C=C\C/C=C\CCCCC)(COC(=O)CCC(CCCCCC)OC(=O)NCCN1CCCC1)COC(=O)CC12CC3CC(CC(C3)C1)C2 (centres unmarked) [Compound 5, [2-[[2-(1-adamantyl)acetyl]oxymethyl]-2-[[(9Z,12Z)-octadeca-9,12-dienoyl]oxymethyl]-3-[4-(2-pyrrolidin-1-ylethylcarbamoyloxy)decanoyloxy]propyl](9Z,12Z)-octadeca-9,12-dienoate] |  |
|  |  |  |  |  |  |  |  |  |  |  |  |  |  |  |  | CCCCC/C=C\CCCOC(=O)CCCCC(=O)OCC(COC(=O)CCCCC(=O)OCCC/C=C\CCCCC)(COC(=O)CCCCC(=O)OCCC/C=C\CCCCC)COC(=O)CCC(CCCCCC)OC(=O)NCCN1CCCC1 (centres unmarked) [Compound 47, O6-[2,2-bis[[6-[(Z)-dec-4-enoxy]-6-oxo-hexanoyl]oxymethyl]-3-[4-(2-pyrrolidin-1ylethylcarbamoyloxy)decanoyloxy]propyl]O1-[(Z)-dec-4-enyl]hexanedioate] | Organ Mean Total Flux Femur [3]: 15.1 p/s (×10^6); Organ Mean Total Flux Heart [3]: 1.7 p/s (×10^6); Organ Mean Total Flux Kidney [3]: 2.5 p/s (×10^6); Organ Mean Total Flux Liver [3]: 974.3 p/s (×10^6); Organ Mean Total Flux Lung [3]: 25.7 p/s (×10^6); Organ Mean Total Flux Muscle [3]: 62.4 p/s (×10^6); Organ Mean Total Flux Pancreas [3]: 4.4 p/s (×10^6); Organ Mean Total Flux Spleen [3]: 67.0 p/s (×10^6) |

| Structure (SMILES) | EE % [1, 4] [%] | mRNA Content [1, 4] [µg/mL] | EE (%) N/P:6 ([1]; Formulation F1, N/P 6) [%] | EE (%) N/P:6 ([1]; Formulation F2, N/P 6) [%] | EE (%) N/P:6 ([1]; Formulation F3, N/P 6) [%] | EE (%) N/P:6 ([1]; Formulation F4, N/P 6) [%] | Particle Size (nm) [2, 5] [nm] | PDI [2, 4] | PDI N/P:6 ([2]; Formulation F1, N/P 6) | Size (nm) N/P:6 ([2]; Formulation F1, N/P 6) [nm] | PDI N/P:6 ([2]; Formulation F2, N/P 6) | Size (nm) N/P:6 ([2]; Formulation F2, N/P 6) [nm] | PDI N/P:6 ([2]; Formulation F3, N/P 6) | Size (nm) N/P:6 ([2]; Formulation F3, N/P 6) [nm] | PDI N/P:6 ([2]; Formulation F4, N/P 6) | Size (nm) N/P:6 ([2]; Formulation F4, N/P 6) [nm] | other results |
| --- | --- | --- | --- | --- | --- | --- | --- | --- | --- | --- | --- | --- | --- | --- | --- | --- | --- |
| CCCCCCCCOC(CCC(=O)OCC(COC(=O)CCCCCCOC(=O)C(CCCC)CCCCCC)(COC(=O)CCC(CCCCCC)OC(=O)NCCN1CCCC1)COC(=O)CCC(OCCCCCCCC)OCCCCCCCC)OCCCCCCCC (centres unmarked) [Compound 20, [7-[2,2-bis(4,4-dioctoxybutanoyloxymethyl)-3-[4-(2-pyrrolidin-1-ylethylcarbamoyloxy)decanoyloxy]propoxy]-7-oxo-heptyl]2-butyloctanoate] | 97 | 98 | 100 | 100 | 100 | 100 | 79 | 0.02 | 0.06 | 64 ± 1 | 0.03 | 76 ± 1 | 0.03 | 91 ± 2 | 0.05 | 61 ± 1 |  |
